How the values were obtained:
Type in all cases: cell-based
[1] = test system: γH2AX, RAD-51, BCL-2, Bax, caspase-3 in HCT-116 cells; assay: Immunoblot after combinatorial treatment of 5FU and compound 2a
Text: The effect of the compound 2a in combination with DNA damaging drug 5-Fluorouracil in colon adenocarcinoma cells was studied. […] Consequently, the major repair factor RAD-51 got diminished as compared to 5FU alone treated lane. The immunoblot results also depicted the downmodulation of cellular survival factor BCL-2 and subsequent upregulation of proapoptotic protein Bax (FIG. 8a). […] Moreover, the effect of the combinatorial treatment on chromosomal stability in HCT-116 cells by chromosome isolation and staining was studied.
The DNA damaging effect of compound 2a in combination with subtoxic doses of 5FU was further analyzed by Annexin/PI staining to check the activation of programmed cell death. […] Cumulatively, compound 2a elevated the DNA damaging effect and eventually leads to programmed cell death in combination with subtoxic doses of 5FU (FIG. 9b).

[2] = test system: human colorectal adenocarcinoma cell line (HT-29); assay: MTT cell viability assay, HT-29; details: Homo sapiens, HT-29, 48 h, read-out: Cytotoxicity (IC50) HT-29, MTT, 48 h; human colorectal adenocarcinoma cell line
Experimental: (§1) Cell viability assay: The cell viability was determined by the standard MTT assay method. Briefly, Panc-1, HCT-116, A549, PC3, MIAPaca-2, HT-29, MDA-MB-231, MCF7 cells, and fR2cells were seeded in 96 well tissue culture plates (Nunc) at a density of 4×10^3 cells per well and treated with varying concentrations of the test compounds in triplicates. DMSO was taken as a vehicle, and its final concentration was maintained at 0.2% in the culture medium. Doxorubicin was employed as a positive control. After 44 h of incubation, MTT dye solution was added into the medium, and cells were incubated for another 4 h at 37° C. in 5% CO2. The amount of colored formazan derivatives formed was measured by taking optical density (OD) using a microplate reader (TECAN, Infinite M200 Pro) at 570 nm, and the percentage of cell viability was calculated. The IC50 values were calculated using GraphPad Prism software (Version 5.0).

[3] = test system: lung adenocarcinoma cells (A549); assay: MTT cell viability assay, A549; details: Homo sapiens, A549, 48 h, read-out: Cytotoxicity (IC50) A549, MTT, 48 h
Experimental: as §1

[4] = HCT-116, 2a in combination with 5FU

CCCCCc1cc(O[C@@H]2OC(CO)[C@@H](O)C(O)C2O)c2c(c1)OC(C)(C)[C@@H]1CCC(C)=C[C@@H]21 (stereo partly drawn) [Compound 2a, Δ^9-tetrahydrocannabinol-1-O-β-D-glucopyranoside]
caspase-3 cleavage ([1]; HCT-116, 2a in association with 5FU, 48 and 60 h): incite caspase-3 cleavage
BCL-2 survival factor [1, 4]: downmodulation
proapoptotic protein Bax [1, 4]: upregulation
expression of γH2AX protein (immunoblot) ([1]; HCT-116, 2a in combination with 5FU, 36 and 48 h): enhanced expression
RAD-51 repair factor ([1]; HCT-116, 2a in combination with 5FU, compared to 5FU alone): diminished
IC50 [2]: 3160 nM
IC50 [3]: 1440 nM

— patent publication US20240382509A1, “Cannabinoids C- and O-glycosides possessing anti-proliferative and anti-metastatic properties and process for preparation thereof” (Council of Scientific and Industrial Research, priority 2021, published 2024)
